From paper PMC5428354, “Screening of a natural compound library identifies emodin, a natural compound from Rheum palmatum Linn that inhibits DPP4” (PeerJ, 2017)
Where two headings read alike, the source gives them in different places.

Target: DPP4 (Homo sapiens, UniProt P27487)
Assay: DPP4 activity assay (DPP4 inhibitor screening assay kit, Cayman);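 note: fluorescence read at excitation 360 nm and emission 460 nm after the enzyme reaction ran 30 min at 37 °C in a 96-well plate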
Assay type: biochemical
Design: purchased Cayman Chemical, Ann Arbor, MI, USA
Conditions: for remaining activity at 10 µM: 0.5 h
[1] = 10 µM, control mean 100.0, Figure 1A raw data, read-out: DPP4 activity in library screen, Exp 1
[2] = 10 µM, control mean 100.0, Figure 1A raw data, read-out: DPP4 activity in library screen, Exp 2
[3] = 10 µM, control mean 100.0, Figure 1A raw data, read-out: DPP4 activity in library screen, Exp 3
[4] = 10 µM, control mean 100.0, mean of Exp 1-3, read-out: DPP4 activity in library screen, Mean
[5] = 10 µM, control mean 100.0, Figure 1A raw data
[6] = 10 µM, control mean 100.0, mean of Exp 1-3

Chain of DPP4 (P27487 whole entry): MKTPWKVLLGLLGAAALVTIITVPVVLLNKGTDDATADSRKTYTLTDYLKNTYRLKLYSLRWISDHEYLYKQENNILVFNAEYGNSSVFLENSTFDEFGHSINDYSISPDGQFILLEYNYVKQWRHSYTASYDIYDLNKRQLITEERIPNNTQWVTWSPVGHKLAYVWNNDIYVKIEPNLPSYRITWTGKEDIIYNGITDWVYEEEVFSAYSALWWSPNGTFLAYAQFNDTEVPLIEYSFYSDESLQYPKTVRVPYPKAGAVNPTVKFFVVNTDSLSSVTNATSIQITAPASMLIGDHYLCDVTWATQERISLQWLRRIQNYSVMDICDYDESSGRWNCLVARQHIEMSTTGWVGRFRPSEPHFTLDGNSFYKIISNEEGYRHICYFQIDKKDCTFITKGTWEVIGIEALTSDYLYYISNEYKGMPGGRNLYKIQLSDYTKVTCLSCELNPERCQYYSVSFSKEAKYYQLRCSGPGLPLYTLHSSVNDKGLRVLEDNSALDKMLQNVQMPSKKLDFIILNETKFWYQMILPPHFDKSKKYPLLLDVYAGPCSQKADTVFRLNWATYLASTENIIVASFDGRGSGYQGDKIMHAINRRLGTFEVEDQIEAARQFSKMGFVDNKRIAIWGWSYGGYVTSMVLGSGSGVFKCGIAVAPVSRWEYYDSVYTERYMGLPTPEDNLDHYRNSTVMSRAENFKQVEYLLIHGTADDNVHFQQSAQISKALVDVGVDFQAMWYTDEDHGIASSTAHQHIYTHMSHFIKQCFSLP

Molecule	remaining activity at 10 µM [1] [%]	remaining activity at 10 µM [2] [%]	remaining activity at 10 µM [3] [%]	remaining activity at 10 µM [4] [%]	DPP4 activity in library screen, Exp 1 [5]	DPP4 activity in library screen, Exp 2 [5]	DPP4 activity in library screen, Exp 3 [5]	DPP4 activity in library screen, Mean [6]	further results
CC(C)(C)[C@]1(O)CC2OC(=O)CC23C(=O)OC2OC(=O)[C@H](O)C231 (stereo partly shown) [Bilobalide]									remaining activity at 10 µM (read-out: DPP4 activity in library screen, Exp 1): 97.2%; remaining activity at 10 µM (read-out: DPP4 activity in library screen, Exp 2): 94.5%; remaining activity at 10 µM (read-out: DPP4 activity in library screen, Exp 3): 103%; remaining activity at 10 µM (read-out: DPP4 activity in library screen, Mean): 98.2%
C=C1C(=O)[C@]23[C@H](O)[C@H]1CC[C@H]2[C@@]12CO[C@]3(O)[C@@H](O)[C@@H]1C(C)(C)CC[C@@H]2O [Oridonin]	81	85.4	96.9	87.8					
CCC1=C[C@@H]2CN3CCc4c([nH]c5ccccc45)[C@@](C(=O)OC)(C2)[C@@H]13 [Catharanthine]					117.2	93.7	139.2	116.7	
COc1cc(/C=C/C(=O)O)ccc1O [Ferulic Acid]					97.5	83.7	98	93.1	
COc1cc(CCC(C)=O)ccc1O [Vanillylacetone]					87.8	96.8	79.9	88.2	
O=c1cc(-c2ccc(O)c(O)c2)oc2cc(O)cc(O)c12 [Luteolin]	61.4	68.3	70	66.6					
O=c1c(O)c(-c2ccc(O)cc2)oc2cc(O)cc(O)c12 [Kaempferol]	52	72.5	70.4	65					
CC(=O)c1c(O)c(C)c(O)c2c1OC1=CC(=O)C(C(C)=O)C(=O)C12C (single isomer, unassigned; (+)) [(+)-Usniacin]					88.7	90.4	89.7	89.6	
COc1ccc([C@@H]2CC(=O)c3c(O)cc(O)cc3O2)cc1O [Hesperetin]	80.8	106	78.5	88.4					
Cc1cc2c(C(C)C)c(O)c(O)c(C=O)c2c(O)c1-c1c(C)cc2c(C(C)C)c(O)c(O)c(C=O)c2c1O [Gossypol]	54.6	59.8	51.6	55.3					
Oc1cc2c(cc1O)[C@@H]1c3ccc(O)c(O)c3OC[C@]1(O)C2 [Hematoxylin]	70.1	72	84.9	75.7					
O=C(O)c1cc(=O)[nH]c(=O)[nH]1 [Orotic acid (6-Carboxyuracil), Orotic acid]	83.5	88	95.5	89					
CC1=C(CC/C(C)=C/CCC2=CC[C@H](C3=CC(=O)O[C@H]3O)O[C@H]2O)C(C)(C)CCC1 [Manoalide]	102	112	125	113					
O=C(O)CCCc1c[nH]c2ccccc12 [3-Indolebutyric acid (IBA), 3-Indolebutyric acid]	92	93.9	107	97.5					
O=C([O-])C(O)Cc1ccc(O)c(O)c1.[Na+] (stereo not shown) [Sodium Danshensu]					95.8	90.3	90.2	92.1	
CC1(C)[C@@H](O[C@H]2O[C@H](C(=O)O)[C@@H](O)[C@H](O)[C@H]2O[C@@H]2O[C@H](C(=O)O)[C@@H](O)[C@H](O)[C@H]2O)CC[C@]2(C)[C@H]3C(=O)C=C4[C@@H]5C[C@@](C)(C(=O)O)CC[C@]5(C)CC[C@@]4(C)[C@]3(C)CC[C@@H]12 [Ammonium Glycyrrhizinate]					83.3	106.3	81.6	90.4	
COc1cc(O)c(CC=C(C)C)c(O)c1C(=O)/C=C/c1ccc(O)cc1 [Xanthohumol]	94.5	102	126	107					
O=C1C[C@@H](c2ccc(O)cc2)Oc2cc(O)cc(O)c21 [Naringenin]	80.4	87.5	94.1	87.3					
Methyl-Hesperidin					98.7	101.2	74.4	91.4	
CN1CC[C@]23c4ccccc4N[C@H]1[C@]21CCN(C)[C@H]3Nc2ccccc21 [Calycanthine]					98.1	98.8	109.2	102.0	
COc1ccc2ccc(=O)oc2c1CC=C(C)C [Osthole]	93.1	95.2	87.3	91.9					
O=C1CCC[C@@H]2[C@H]3CCC[N+]4([O-])CCC[C@@H](CN12)[C@@H]34 (stereo partly shown) [Oxymatrine]	106	103	83.7	97.6					
O=[N+]([O-])c1ncc[nH]1 [Azomycin]	74.2	78.5	76.2	76.3					
O=C1c2c(O)cc(O)cc2OC(c2ccc(O)c(O)c2)C1O (stereo not shown) [Taxifolin (Dihydroquercetin), Taxifolin]	93.8	83.2	67.9	81.6					
C[C@H]1CC[C@]2(NC1)O[C@H]1C[C@H]3[C@@H]4CC[C@H]5C[C@@H](O[C@@H]6O[C@H](CO)[C@H](O[C@@H]7O[C@H](CO)[C@@H](O)[C@H](O[C@@H]8OC[C@@H](O)[C@H](O)[C@H]8O)[C@H]7O[C@@H]7O[C@H](CO)[C@@H](O)[C@H](O)[C@H]7O)[C@H](O)[C@H]6O)CC[C@]5(C)[C@H]4CC[C@]3(C)[C@H]1[C@@H]2C [Tomatine]	103	91.8	124	106					
C=C1C(=O)O[C@H]2[C@H]1CC/C(C)=C/CC[C@@]1(C)O[C@@H]21 [(-)-Parthenolide]					73.3	84.6	113.2	90.4	
COc1ccc(CC2NCCc3cc(OC)c(OC)cc32)cc1OC.Cl (stereo not shown) [Tetrahydropapaverine HCl]					92.5	78	76.9	82.5	
O=C(CCc1ccc(O)cc1)c1c(O)cc(O)cc1O[C@@H]1O[C@H](CO)[C@@H](O)[C@H](O)[C@H]1O [Phlorizin]	63.2	86.5	114	87.8					
